{"source": "patent US20240285497A1", "about": "“METHOD FOR EVALUATING AN ABILITY OF A TEST SAMPLE TO TRIGGER A FOREIGN BODY REACTION IN THE SKIN, A METHOD FOR SCREENING A SUBSTANCE HAVING AN ABILITY TO INHIBIT A FOREIGN BODY REACTION IN THE SKIN, AND AN AGENT FOR INHIBITING A FOREIGN BODY REACTION IN THE SKIN” (priority 2021, published 2024)", "key": {"[1]": {"test_system": "xenobiotic responsive element (XRE)", "test": "Evaluation of ability to trigger a foreign body reaction using XRE-NLuc::HaCaT reporter cells (NLuc luminescence per viable cell)", "type": "cell-based, human", "conditions": "XRE-NLuc::HaCaT cells; for EC50: reporter protein expression; for Present Experiment Maximum Effective concentration Max. Induction: concentration at which reporter expression was maximized", "protocol": "First, XRE-NLuc::HaCaT cells were suspended in a DMEM medium at the density of 1×10^5 cell/mL, and 100 μL of the thus obtained suspension was added to each well of white 96 well plates (Thermo Fisher Scientific, MA, U.S.A.; Catalogue No.: 136102) so that the number of the cells in each well was 10,000 cells/well. In accordance with a conventional method, the cells were incubated at 37° C., 5% CO2 for 24 hours. Thereafter, the DMEM medium was removed, and 100 μL of a new DMEM medium containing FICZ (6-Formylindolo[3,2-b]carbazole; CAS RN: 172922-91-7) as a test sample at a predetermined concentration was added, followed by further incubation for 24 hours at 37° C., 5% CO2. FICZ is known as a substance that triggers a foreign body reaction in which XRE is involved. Meanwhile, negative controls were prepared by adding 100 μL of a DMEM medium containing no FICZ instead of the DMEM medium containing FICZ, which were also incubated for 24 hours at 37° C., 5% CO2.\n(§1) After the above-described incubation for 24 hours, the number of cells in each well was counted by a colorimetric method based on the degradation of tetrazolium salt (WST-1) by mitochondrial dehydrogenase in viable cells. Specifically, 3 μL of Premix WST-1 (Product Name “Premix WST-1 Cell Proliferation Assay System”; Takara Bio Inc., Shiga, Japan; Catalogue No.: MK400) was added to each well of 96 well plates, and then the cells were cultured for 1 hour at 37° C., 5% CO2. Thereafter, 93 μL of cell culture supernatant was removed from each well to measure the absorbance of the supernatant in each well. The removed supernatants were transferred to transparent 96 well plates, and then the absorbance at 450 nm (A450) and, as a reference wavelength, the absorbance at 670 nm (A670) were measured using iMark microplate reader (Bio-Rad; Catalogue No.: 168-1130JA). A value (A450-A670) was obtained by subtracting the absorbance at 670 nm (A670) from the absorbance at 450 nm (A450). The relative viable cell count (%) was expressed as a relative value with the value (A450-A670) obtained for the negative control as 100%.\nMeanwhile, the expression level of the reporter protein was measured using samples left on the white 96-well plates after removing the supernatants for the viable cell count measurement. Briefly, 7 μL of Nano-Glo Luciferase Assay System (Promega; Catalogue No.: N110) was added to each well of the white 96-well plate. After 3 mins, the luminescence intensity obtained from the reporter protein produced by XRE-NLuc::HaCaT cells in each well was measured using GloMax Navigator Microplate Luminometer (Promega; Catalogue No.: GM2000). The obtained luminescence intensities were divided by the relative viable cell counts obtained by the above-described colorimetric method to obtain the expression level of the reporter protein (luminescence intensity) per unit number of viable cells.\nIn FIG. 3, the luminescence intensity per unit number of viable cells obtained from XRE-NLuc::HaCaT cells incubated with each of the DMEM medium containing FICZ at different concentrations was shown as a relative value, with the luminescence intensity per unit number of viable cells obtained for the negative control set to 1. […] In the figure, “*” and “**” indicate statistically significant differences (p<0.05 and p<0.01, respectively) from the negative control (“FICZ Concentration 0 nM” in FIG. 3).\n(§2) The ability of each test sample to trigger a foreign body reaction was evaluated using XRE-NLuc::HaCaT cells in the same manner as in Experiment 1-2, except that I3C (Indole-3-carbinol, CAS RN: 700-06-1), ITE (2-(1′H-indole-3′-carbonyl)-thiazole-4-carboxylic acid methyl ester, CAS RN: 448906-42-1), and Indirubin (CAS RN: 479-41-4) were used instead of FICZ as test samples and the amount of each test sample added to the DMEM medium was appropriately changed."}, "XRE-NLuc::HaCaT cells": {"test_system": "XRE-NLuc::HaCaT cells", "test": "in vitro", "conditions": "read-out: LC50; XRE-NLuc::HaCaT cells, median lethal concentration", "protocol": "as §1, §2"}, "[2]": {"test_system": "xenobiotic responsive element (XRE)", "test": "Screening: inhibition of FICZ-triggered reporter protein expression in XRE-NLuc::HaCaT cells", "type": "cell-based, human", "conditions": "FICZ 5,000 nM, 24 hours", "protocol": "First, in the same manner as in Experiment 1-2, XRE-NLuc::HaCaT cells were suspended in a DMEM medium at the density of 1×10^5 cell/mL, and 100 μL of the thus obtained suspension was added to each well of white 96-well plates (Thermo Fisher Scientific, MA, U.S.A.; Catalogue No.: 136102) so that a number of the cells in each well was 10,000 cells/well. In accordance with the conventional method, the cells were incubated for 24 hours at 37° C. and 5% CO2. Thereafter, the DMEM medium was removed, and 100 μL of a new DMEM medium containing […] of FICZ, which was confirmed to activate the expression of the reporter protein in Experiment 1-2, and a candidate substance at a predetermined concentration. Meanwhile, reference samples were also prepared by adding 100 μL of a DMEM medium containing 5,000 nM of FICZ but not containing candidate substances. In this experiment, 5-hydroxy-4-phenyl-2(5H)butenolide (hereinafter also referred to as “Fraglide-1” or “FG1”) and, as a positive control, cinnamaldehyde, which is known to have an effect of inhibiting a foreign body reaction in which a xenobiotic responsive element (XRE) is involved, were used as test substances. After incubation for 24 hours at 37° C. and 5% CO2, the expression level of the reporter protein (luminescence intensity) and the viable cell count were measured in accordance with the method described in Experiment 1-2, and the expression of the reporter protein per unit number of viable cells was obtained. The inhibition rate (Inhibition (%)) of the expression of the reporter protein exerted by each candidate substance was calculated in accordance with the following formula.\nIn the above formula, (Reporter Expression)FICZ indicates the expression of the reporter protein per unit number of viable cells obtained from the reference samples: i.e., the cells incubated in the medium containing 5,000 nM of FICZ but not containing candidate substances. Meanwhile, (Reporter Expression)FICZ+TEST SAMPLE indicates the expression of the reporter protein per unit number of viable cells obtained from the cells incubated in the medium containing 5,000 nM of FICZ and a candidate substance. The results shown in FIG. 6 were the mean obtained from three independent experiments. The error bars represent the standard error (SE)."}, "[3]": {"test_system": "human liver cancer-derived cell line HepG2 cells", "conditions": "cited from earlier work"}, "in vitro": {"test": "in vitro", "conditions": "human", "protocol": "as §1, §2"}, "[4]": {"test_system": "matrix metalloprotease 9 (MMP9) mRNA", "test": "MMP9 mRNA expression in HaCaT cells contacted with test substance, quantitative PCR", "type": "cell-based, human", "conditions": "retinoic acid or nicotinamide at predetermined concentrations, 24 hours", "protocol": "(§3) In this experiment, the effect of Fraglide-1 on the expression of MMP9 in the level of mRNA was examined first. Specifically, HaCaT cells were treated with Fraglide-1 in the same manner as described in Experiment 3-1 except that HaCaT cells were incubated for 24 hours in the medium containing 0 μM, 1 μM, 10 μM, and 100 μM of Fraglide-1 instead of being incubated for 24 hours in the medium containing both FICZ and Fraglide-1. The total RNA was then extracted, cDNA was prepared, and the quantitative PCR was performed using the obtained cDNA. Herein, the procedure of the quantitative PCR was the same as described in Experiment 3-1 except that the primers shown in below Table 4 were used. In this experiment, the expression of MMP2 mRNA was also quantified in addition to MMP9 mRNA. MMP2 is known as a MMP which is not transcriptionally regulated by a xenobiotic responsive element (XRE).\n(§4) In FIG. 9 and FIG. 10, the results obtained for each sample were shown as a relative value, with the mRNA expression level of MMP9 or MMP2 in the HaCaT cells incubated for 24 hours in DMEM medium without FICZ (i.e., the non-treated HaCaT cells) set to 1. The results shown in FIG. 9 and FIG. 10 were the mean obtained from three independent experiments. The error bars represent the standard deviation (SD).\nNext, experiments were performed to inhibit MMP9 and MMP2 in HaCaT cells using retinoic acid (CAS RN: 302-79-4) and nicotinamide (CAS RN: 98-92-0), which are known to be substances having anti-wrinkle effect. Briefly, HaCaT cells were made in contact with retinoic acid and nicotinamide in the same manner as in Experiment 4-1 except that retinoic acid and nicotinamide were used instead of Fraglide-1. Then, the total RNA was extracted, cDNA was prepared, and the quantitative PCR was carried out using the obtained cDNA.\nas §4, with “FIG. 12” for “FIG. 9”, “FIG. 13,” for “FIG. 10,”, “medium containing neither retinoic acid nor nicotinamide” for “medium without FICZ”, “FIG. 13” for “FIG. 10”"}, "[5]": {"test_system": "matrix metalloprotease 2 (MMP2) mRNA", "test": "MMP2 mRNA expression in HaCaT cells contacted with test substance, quantitative PCR", "type": "cell-based, human", "conditions": "retinoic acid or nicotinamide at predetermined concentrations, 24 hours", "protocol": "as §3, with “(XRE). […]” for “(XRE).”\nNext, experiments were performed to inhibit MMP9 and MMP2 in HaCaT cells using retinoic acid (CAS RN: 302-79-4) and nicotinamide (CAS RN: 98-92-0), which are known to be substances having anti-wrinkle effect. […] Then, the total RNA was extracted, cDNA was prepared, and the quantitative PCR was carried out using the obtained cDNA. […]"}, "[6]": {"test_system": "TIMP-1 (Tissue Inhibitor of Matrix Metalloprotease-1) mRNA", "test": "TIMP-1 mRNA expression in HaCaT cells, quantitative PCR", "type": "cell-based, human", "conditions": "Fraglide-1 1 μM, 10 μM, 100 μM; retinoic acid / nicotinic acid amide at predetermined concentrations; 24 hours", "protocol": "Specifically, the mRNA expression of TIMP-1 in the HaCaT cells treated with Fraglide-1 was evaluated by performing quantitative PCR using cDNA obtained in Experiment 4-1. The procedure of quantitative PCR was the same as described in Experiment 4-1 except that the primers shown in below Table 5 were used.\n(§5) In FIG. 14, the results obtained for each sample were shown in relative values normalized by setting the expression level of TIMP-1 in the HaCaT cells incubated for 24 hours in DMEM medium not containing Fraglide-1 (i.e., the non-treated HaCaT cells) as 1. The results shown in FIG. 14 are the mean of values obtained from three independent experiments, and the error bars represent standard deviation (SD).\nOn the other hand, as comparison, the similar evaluation was performed for retinoic acid and nicotinamide, which are known as active ingredients of anti-wrinkle agents, using cDNA obtained in Experiment 4-2. The procedure for quantitative PCR was the same as already described in Experiment 3-1, except that the primers shown in Table 5 were used.\nas §5, with “15,” for “14,”, “either retinoic acid and nicotinic acid amide” for “Fraglide-1”, “15” for “14”"}}, "note": "Marks after values point to notes of the source that are not given here."}
{"smiles": "OCc1c[nH]c2ccccc12", "note": "[I3C, indole-3-carbinol]", "values": [{"measurement": "EC50", "setting": "[1]", "value": 11, "unit": "µM"}, {"measurement": "Present Experiment Maximum Effective concentration Max. Induction", "setting": "[1]", "value": 350, "unit": "µM"}, {"measurement": "CC50", "setting": "XRE-NLuc::HaCaT cells", "value": "> 700", "unit": "µM"}]}
{"smiles": "O=CC=Cc1ccccc1", "note": "[cinnamaldehyde]", "values": [{"measurement": "Inhibition (%) of expression of the reporter protein triggered by FICZ", "setting": "[2]; 12.5 μM test substance", "value": 8, "unit": "%"}, {"measurement": "Inhibition (%) of expression of the reporter protein triggered by FICZ", "setting": "[2]; 25 μM test substance", "value": 14, "unit": "%"}, {"measurement": "Inhibition (%) of expression of the reporter protein triggered by FICZ", "setting": "[2]; 50 μM test substance", "value": 16, "unit": "%"}]}
{"smiles": "COC(=O)c1csc(C(=O)c2c[nH]c3ccccc23)n1", "note": "[ITE, 2-(1′H-indole-3′-carbonyl)-thiazole-4-carboxylic acid methyl ester]", "values": [{"measurement": "EC50", "setting": "[1]", "value": 1.3, "unit": "µM"}, {"measurement": "Present Experiment Maximum Effective concentration Max. Induction", "setting": "[1]", "value": 25, "unit": "µM"}, {"measurement": "CC50", "setting": "XRE-NLuc::HaCaT cells", "value": "> 100", "unit": "µM"}, {"measurement": "Literature Value Maximum Effective concentration Max. Induction", "setting": "[3]", "value": "10** μM"}]}
{"smiles": "O=C1Nc2ccccc2/C1=C1/Nc2ccccc2C1=O", "note": "[Indirubin, indirubin]", "values": [{"measurement": "EC50", "setting": "[1]; Homo sapiens", "value": 0.006, "unit": "µM"}, {"measurement": "Present Experiment Maximum Effective concentration Max. Induction", "setting": "[1]", "value": 0.25, "unit": "µM"}, {"measurement": "CC50 at 24 h", "setting": "in vitro", "value": "> 40", "unit": "µM"}]}
{"smiles": "NC(=O)c1cccnc1", "note": "[nicotinamide]", "values": [{"measurement": "expression of MMP9 mRNA vs non-treated HaCaT cells", "setting": "[4]", "value": "decreased expression of MMP9 was also observed"}, {"measurement": "expression of MMP2 mRNA vs non-treated HaCaT cells", "setting": "[5]", "value": "decreased"}, {"measurement": "expression level of TIMP-1 mRNA vs non-treated HaCaT cells (in words)", "setting": "[6]", "value": "increase of the expression level of TIMP-1 was not observed"}]}
